Assays:
BALB/c male mice = experiment: Toxicity test in mice, repeated oral dosing; type: in vivo
[1] = test system: intraperitoneal eosinophilia; experiment: Action on intraperitoneal eosinophilia model mice; type: in vivo, BALB/c male mice; conditions: BALB/c mice sensitized with swine roundworm extract; oral once a day, 10 times; dose 10 mg/kg/day
Experimental: Using five animals per group of BALB/c male mice (about 25 g in body weight), 0.11 mL of physiological saline containing 0.1 mg of swine roundworm extract was administered into the peritoneal cavity of each mouse to sensitize. The same treatment was repeated 7 days after the administration and, 3 days thereafter, each animal was sacrificed by phlebotomy, 3 mL of physiological saline containing 1% dipotassium ethylenediaminetetraacetate (EDTA) was administered by intraperitoneal injection and its abdominal region was massaged for about 30 seconds. […] A portion of the cell suspension was daubed on a slide glass using a spinner to carry out Diff-Quik staining, and then total leukocytes and eosinophils were counted to calculate the ratio of eosinophils in the total leukocytes. The number of total leukocytes in the cell suspension was measured using an automatic blood cell counter. The number of eosinophils in the cell suspension was calculated by multiplying the ratio of eosinophils in the total leukocytes by the number of total leukocytes. […] The dose of each compound to be tested and the intraperitoneal eosinophilia inhibition rate calculated by the following formula are shown in Table 1. […]

[2] = test system: IFN-γ production of the spleen cell; experiment: Action of IFN-γ production enhancement in tumor-bearing mouse; type: in vivo; conditions: B16F10 tumor-bearing C57BL/6 mouse, oral day 7 to day 21, spleen cells cultivated 24 hours with no stimulation, EIA, N = 7
Experimental: B16F10 cells cultivated in DMEM (Dulbecco's medium) supplemented with 10% FCS (fetal calf serum) were treated with trypsin, washed with PBS (phosphate buffered saline, pH 7.4), and adjusted in PBS to 1×10^7 cells/ml. The cells were subcutaneously injected in the abdomen of male C57BL/6 mouse (7 week old; body weight, about 23 g) at a dose of 0.1 ml/mouse. The day of tumor inoculation was designated day 0, and the tumor diameter was measured at day 7 with a vernier caliper. The tumor volume was calculated in terms of (minor diameter)^2×(major diameter), and the mice were grouped by using this value and the body weight for the indexes. […] The test compound was orally administered from day 7 to day 21. The solvent used was 0.5% HPMC (Hydroxy propyl methyl cellurose), and the control group was administered only with the solvent. At day 22, the mice were decapitated and the spleens were removed. After weighing the organs, the spleen was homogenized with a glass homogenizer, adjusted to 5×10^6 cells/ml, and cultivated in S-Clone SF-B medium (Sanko Pure Chemicals). The culture supernatant was collected after 24 hours, and […] at −80° C. The supernatant was measured for its IFN-γ concentration (pg/mL) by EIA (Enzyme Immunoassay). The measurement was conducted with an assay kit of ENDOGEN.

SD female rats = experiment: Toxicity test in rats, 14 days oral dosing; type: in vivo; conditions: 0.5% HPMC suspension, 300 mg/kg/day for 14 days
Experimental: SD female rats were orally treated with the compounds of Inventive Examples 54 and 55 suspended in 0.5% aqueous solution of HPMC at a dose of 300 mg/kg/day for 14 days.

[3] = Hydrolysis of the ester bond in the rat; type: in vivo
[4] = 5% acacia suspension, 100 mg/kg/day for 7 days, observed for 3 days after administration
[5] = 0.5% HPMC suspension, 100 mg/kg/day for 4 days

O=C(O)CC(O)c1cccc2nc(CCc3ccccc3)[nH]c12 (stereo not drawn)
melting point: 103 to 105.3 °C

O=C(O)CC(=O)c1cccc2nc(CCc3ccccc3)[nH]c12 [compound 1]
Abnormality in body weight and general symptoms (BALB/c male mice; [4]): no abnormality
Mortality (BALB/c male mice; [4]): no mortal case

COC(=O)CC(=O)c1cccc2nc(CCc3ccccc3)[nH]c12 [compound 2]
Abnormality in body weight and general symptoms (BALB/c male mice; [4]): no abnormality
Mortality (BALB/c male mice; [4]): no mortal case

CCOC(=O)CC(=O)c1cccc2nc(CCc3ccccc3)[nH]c12 [compound 3]
Intraperitoneal eosinophilia inhibition rate (%) [1]: 67%

COC(=O)CC(O)c1cccc2nc(CCc3ccccc3)[nH]c12 (stereo not drawn) [compound 5]
Abnormality in body weight and general symptoms (BALB/c male mice; [4]): no abnormality
Mortality (BALB/c male mice; [4]): no mortal case

CCOC(=O)CC(O)c1cccc2nc(CCc3ccccc3)[nH]c12 (stereo not drawn) [compound 6]
IFN-γ concentration ([2]; dose 10 mg/kg/day): 125 pg/mL
IFN-γ concentration ([2]; dose 30 mg/kg/day): 194 pg/mL
IFN-γ concentration ([2]; dose 100 mg/kg/day): 263 pg/mL
Abnormality in body weight and general symptoms (BALB/c male mice; [5]): no abnormality
Mortality (BALB/c male mice; [5]): No mortal case

O=C(O)CC(O)c1cccc2nc(CCc3ccccc3)[nH]c12 (stereo not drawn) [compound 7]
Abnormality in body weight and general symptoms (BALB/c male mice; [5]): no abnormality
Mortality (BALB/c male mice; [5]): No mortal case
Abnormality in body weight and general symptoms (BALB/c male mice; [4]): no abnormality
Mortality (BALB/c male mice; [4]): no mortal case

CCOC(=O)CC(=O)c1cccc2c1nc(CCc1ccccc1)n2C [compound 10]
Abnormality in body weight and general symptoms (BALB/c male mice; [4]): no abnormality
Mortality (BALB/c male mice; [4]): no mortal case

CCOC(=O)CC(O)c1cccc2nc(CCc3ccccc3)[nH]c12 (stereo not drawn) [compound 54]
Relative liver weight (SD female rats): significant increase
Ester bond hydrolysis to generate carboxyl group [3]: hydrolyzed
Abnormality in body weight and general symptoms (BALB/c male mice; [5]): no abnormality
Mortality (BALB/c male mice; [5]): No mortal case

CCOC(=O)CC(O)c1cccc2nc(CCc3ccccc3)[nH]c12 (stereo not drawn) [compound 55]
Relative liver weight (SD female rats): no such increase
Ester bond hydrolysis to generate carboxyl group [3]: hydrolyzed
Abnormality in body weight and general symptoms (BALB/c male mice; [5]): no abnormality
Mortality (BALB/c male mice; [5]): No mortal case
